# Earlier results, collected in US20140242707A1, “Compositions and Methods for Diagnosing Hypercoagulability and Hypocoagulability” (Philadelphia Health & Education Corporation d/b/a Drexel …, priority 2011, published 2014).
# Read-outs that look alike come from different tables or passages of the source.
# Key:
# ear bleeding time = details: CORM-2 intravenously, cited from earlier work
# human or rabbit plasma = details: 100 μM CORM-2, humans or rabbits; cited from earlier work
smiles,measurement,setting,value
"[C-]#[O+].[C-]#[O+].[C-]#[O+].[C-]#[O+].[C-]#[O+].[C-]#[O+].[Cl][Ru][Cl].[Cl][Ru][Cl] [CORM-2, tricarbonyldichlororuthenium (II) dimer]",ear bleeding time,ear bleeding time; rabbits administered intravenous tPA,near normal
same,ear bleeding time,ear bleeding time; rabbits with platelet inhibition by aspirin and clopidogrel,normal
same,increase in MRTG,human or rabbit plasma,64-100%
same,increase in TTG,human or rabbit plasma,51-68%
